As a reminder, the melting point is the temperature of the solid-liquid transition.

Molecules are shown by their SMILES. Bounds are passed on as bounds.

Drawing on a melting point compilation (Tetko et al.; mined from patent text by program, amines drawn as free bases though some values may be those of a salt), this text covers melting point for 91 compounds.

The compound `c1ccc(COC[C@H]2OC(Sc3ccccc3)[C@H](OCc3ccccc3)[C@@H](OCc3ccccc3)[C@@H]2OCc2ccccc2)cc1` (stereo partly specified) came in with a melting point of 85 to 86 °C.
Then `O=C(O)c1nnc2ccc(NCCCN3CCC(OC(c4ccccc4)c4ccccc4)CC3)nn12`, with 102 to 104 °C.
Under `O=C(O)CC(C1CCCCC1)C1CCCCC1` stands 118 to 120 °C; under `COC(=O)c1ccc(OC)cc1NC(C)=O`, 123 to 126 °C; under `Cc1nn2c(-c3cccc(NC(=O)CC(C)C)c3)ccnc2c1C(=O)c1cccs1`, 137 to 139 °C.
Under `CCOC(=O)N1CCC(=C2c3ccsc3C=Cn3ccnc32)CC1` stands 194 °C; under `O=C1CCC(c2ccc(-n3ccnc3)nc2)=NN1`, 276 to 278 °C.
For `CCOC(=O)C(C)(C)c1ccc(OCc2ccccc2)cc1`, the melting point fell in the range of 54 to 55 °C.
Under `Cc1nnsc1C(=O)NCCc1ccccc1` stands 64 to 68 °C; under `O=C(Nc1ccccc1)c1cccc(Nc2cc(Cl)cc(Cl)c2)c1`, 164 to 165 °C; under `OCc1ccc2ccn(C3CCN(CCc4ccccc4F)CC3)c2c1`, 117 to 118 °C.
`O=c1ccn(C2=CCN(Cc3ccc(Br)cc3)C=C2)cc1`: the melting point fell in the range of 166 to 168 °C.
Under `COC(=O)CCC#Cc1ccc(C(=C2CC(C)(C)CC(C)(C)C2)c2ccc(O)cc2)cc1` stands 159 to 160 °C; under `CC1(C)OC(C=Cc2ccnc3ccccc23)=CC1=O`, 117 to 118 °C; under `O=[N+]([O-])c1ccc(S(=O)(=O)CCO)cc1O`, 140 to 142 °C.
Under `CC(C)Cc1cnc(N)c([N+](=O)[O-])c1` stands 147 to 149 °C; under `Cc1cccc(NC(=O)NC2N=C(C3CC3)c3cccc(C)c3N(CC(=O)N3CCCCCCC3)C2=O)c1` (stereo unspecified), 178 to 179 °C.
`N#CCc1cccnc1C#N` returned a melting point of 48 to 51 °C.
Compound `O=C(O)c1ccc(-c2c([N+](=O)[O-])oc3ccc(-c4ccccc4)cc23)cc1` had a melting point of 235 to 249 °C.
In turn, `CCNc1ccc(C)c(O)c1` yielded a melting point of 128 to 129 °C.
Then `CSC1=NC(C)(C)SC1=NO`, with 168 to 171 °C.
In turn, `c1ccc(-c2cc(-c3csc(Nc4ccncc4)n3)on2)cc1` displayed a melting point of 269 to 270 °C.
Under `COc1ccc2cc3c(Nc4ccc(Cl)cc4Cl)c(C#N)cnc3cc2c1` stands greater than 260 °C; under `CCC(Cc1ccc(OCCN2CCCCC2)cc1)(C(=O)NO)S(=O)(=O)c1ccc(OC)cc1` (stereo unspecified), 75 °C.
Then `Cc1cc(F)ccc1Oc1ccc(C2=CC=CN3CCS(=O)(=O)N=C23)cc1`, with 240 to 242 °C; and `CC(=O)c1[nH]c(-c2ccc(O)cc2)nc1C`, with 300 °C; and `Oc1nc(-c2ccc(F)cc2)c(CCN2CCC(=Cc3cccc(F)c3)CC2)s1`, with 140 to 142 °C.
Then `Cc1nc(-n2ccc(OCC3CCCO3)cc2=O)sc1C(=O)NCc1ccccc1` (stereo unspecified), with 181 to 183 °C; and `CC(C)(F)c1cnn2c(-c3ccc(F)c(-c4ccc(F)cc4C#N)c3F)cnc2n1`, with 166 to 169 °C.
`CCCCCCCCCCCCCCCCS(=O)(=O)Nc1cccc(C(C)=O)c1` displayed a melting point of 95.5 to 100 °C.
Under `O=C(Oc1ccc(Cl)c(OCC2CC2(Cl)Cl)c1)N1CCSC1` (stereo unspecified) stands 74 to 79.5 °C; under `Cc1oc2c(C)c(C)c(NCc3ccccc3)c(C)c2c1-c1ccc(C(C)C)cc1`, 94 to 95 °C.
Then `COc1cc(NC(C)=O)ccc1OCC(O)CN1CCN(c2ccccc2F)CC1` (stereo unspecified), with 144 °C; and `CC#CCOc1ccc(S(=O)(=O)NC[C@@H](C(=O)NO)N2CCN(S(C)(=O)=O)CC2)cc1`, with 150 °C; and `N#Cc1ccc2c(c1)CCc1nn(-c3ccccn3)c(O)c1-2`, with 232 to 233 °C.
Under `COCC1CN(c2ccc3cc(S(N)(=O)=O)ccc3c2)C(=O)O1` (stereo unspecified) stands 166 to 168 °C.
In turn, `CC(=S)NC[C@H]1CN(c2ccc(-c3nc(Cn4cccn4)cs3)c(F)c2)C(=O)O1` gave a melting point of 166 to 168 °C.
Then `Cc1ccc(S(=O)(=O)CS(C)(=O)=O)cc1`, with 164 to 165 °C.
Under `Cc1c(SCCN2CCOCC2)ccnc1CSc1nc2ccccc2n1CC(N)=O` stands 178 to 180 °C; under `CN1CN(C2CC2)c2ccc(C(N)=O)cc2S1(=O)=O`, 271 to 273 °C.
In turn, `CCCCCCCCCCOc1cc(OCCCCCCCCCC)cc(C(=O)O)c1` gave a melting point of 56 to 58 °C.
In turn, `CCOC(=O)C1CCN2C(=O)C(=O)c3cc(Br)cc1c32` (stereo unspecified) registered a melting point of 150 to 151 °C.
Regarding `COc1ccc(N2CCN(c3ccc(-n4cccn4)cc3)CC2)cc1`, the melting point stood at 208 °C.
`NC(=O)c1sc2nccc(NCCCc3ccccc3)c2c1N` showed a melting point of 232 to 234 °C.
Under `COC1CCc2c(C)c(O)c(C)c(C)c2O1` (stereo unspecified) stands 108 to 110 °C; under `CN(C)c1ccc(C(=O)C=Cc2ccc([N+](=O)[O-])cc2)cc1`, 198 to 200 °C.
Then `Cc1ccc(C(=O)C(=O)c2ccncc2)cc1`, with 65 °C.
Under `COC(=O)C(O)c1ccc(Cl)cc1` (stereo unspecified) stands 55 °C; under `CC(=C(c1ccc(N(C)C)cc1)c1ccc(N(C)C)cc1)P(C1CCCCC1)C1CCCCC1`, 159 to 164 °C.
The compound `COCCc1nc2c(N)nc3cc(Br)ccc3c2n1CCCN1CCCC1=O` returned a melting point of 228 to 231 °C.
Then `CC(C)(C)c1cc(C=C2NC(=O)NC2=O)cc(C(C)(C)C)c1O`, with 251 to 252 °C; and `Nc1nc(N)c2cc(S(=O)(=O)c3ccc(Cl)c(Cl)c3)ccc2n1`, with 286 to 289 °C.
Take `CCNCCC1CCc2cc(OCc3ccc(-c4ccccc4)cc3)ccc2C1` (stereo unspecified): the melting point was in the range of 83 to 85 °C.
For `CCOC(C)OCc1ccccc1C(=NO)C(=O)NC` (stereo unspecified), the melting point was in the range of 85 to 87 °C.
Then `CCCCc1oc2ccccc2c1C(=O)Nc1ccc(-c2ccc(OCc3nnn[nH]3)cc2)cc1`, with 210 to 212 °C; and `CC(=O)c1cc(S(=O)(=O)c2ccccc2)ccc1OC[C@@H]1CO1`, with 112 to 114 °C; and `c1ccc2c(c1)CCc1cccnc1C2C1CCNCC1` (stereo unspecified), with 111 to 114 °C.
`O=C(C(c1ccccc1)n1cnc2[nH]ncc2c1=S)N1CCCCCC1` (stereo unspecified): the melting point was greater than 230 °C.
Then `CCc1nc2c(O)c(CCC(O)c3ccccc3)c(C(=O)N(C)C)cc2n1C` (stereo unspecified), with 121 to 124 °C; and `CC(=O)Nc1nc(CN2CCN(C(c3ccccc3)c3ccccc3)CC2)c(Cl)s1`, with 227 to 230 °C; and `CCCCNc1ccccc1S(=O)(=O)NC(=O)n1nc(SC)n(C)c1=O`, with 120 °C.
Under `CN1C(=O)c2ccccc2CC12c1ccccc1C(=O)N2C` (stereo unspecified) stands 202 to 203 °C.
Then `NS(=O)(=O)c1cc2sc(C=O)cc2s1`, with 203 to 204 °C; and `O=C(NCCN1CCCC1)c1ccc(OCc2ccc(-c3ccccc3)cc2)cc1`, with 173 to 175 °C; and `CC1(C)OC(c2ccc(S(N)(=O)=O)cc2F)=C(c2ccccc2)C1=O`, with 79 to 81 °C.
The compound `CCOC(=O)CN1Cc2ccccc2CC(N)C1=O` (stereo unspecified) registered a melting point of 71 to 73 °C.
Under `Cc1csc2ccc3[nH]c4c(c3c12)CN(CCCC(c1ccc(F)cc1)c1ccc(F)cc1)CC4` stands 158 °C; under `CCc1c(C(=O)c2cc(C)cc(C)c2)n(C/C=C\c2ccccc2)c(=O)[nH]c1=O`, 98 to 99 °C.
Under `CCC(Oc1ccc([N+](=O)[O-])cc1)C(=O)NCc1ccccc1OC` (stereo unspecified) stands 109 to 112 °C; under `ClCc1coc(C=C(c2ccccc2)c2ccccc2)n1`, 107 to 108 °C; under `Cc1nc2ccccc2c(NCc2ccccc2)c1C(C)O` (stereo unspecified), 176 to 177 °C.
The compound `CCOC(=O)c1ccc(NC(=O)CCn2cnc3c(=O)[nH]cnc32)cc1` returned a melting point of 265 to 269 °C.
Under `CCn1c(C)nc(OCc2ccc(OCc3ccc(F)cc3)cc2)c(C)c1=O` stands 81 to 82.3 °C.
For the compound `ON=C(Cc1cnccn1)c1ccc(Cl)cc1`, the melting point is 134 °C.
Under `CCCCCCOc1ccc(Nc2ncc(F)c(Nc3ccc4c(c3)OCCO4)n2)cc1` stands 115 to 117 °C; under `Nc1nc(N)c(-c2ccc(Cl)cc2Cl)c(C=NO)n1`, 260 to 265 °C; under `Nc1ccc2c(c1)C(NC(=O)C(F)(F)F)CC2` (stereo unspecified), 133 to 134 °C.
Take `Clc1ccc(C=Cc2nc(CNc3ccc(CCCCn4ccnn4)cc3)co2)cc1Cl`: the melting point lay in the range of 76.8 to 78.8 °C.
Then `COc1ccc(CN2C(=O)[C@@H](NC(=O)Cc3ccccc3)[C@H]2CO)c(OC)c1` (relative stereo), with 152 to 154 °C; and `O=c1[nH]c(=O)n(C2CC(F)C(CF)O2)cc1C=CBr` (stereo unspecified), with 177 to 180 °C; and `CNc1nc(NS(=O)(=O)c2ccc(N)cc2)cc(N2CCCC2)n1`, with greater than 300 °C.
Then `CNc1nc(-c2cccc([N+](=O)[O-])c2)c2cc(OC)c(OC)cc2n1`, with 218 to 220 °C.
Consider `O=C1NC(=O)C(CCOc2ccc(F)cc2)S1` (stereo unspecified), for which the melting point was 94 to 96 °C.
Take `COc1ccc(Oc2cn(C)cc(-c3cccc(C(F)(F)F)c3)c2=O)cc1`: the melting point is 119 to 120 °C.
Under `Cc1cc(Cl)cc(C(=O)Nc2cccc(Cl)c2)n1` stands 174 °C; under `Cc1ccnc(C(=O)c2[nH]c3ccc(Cl)cc3c2CC(=O)NCCN)c1`, 166 °C; under `O=C(OC1CCN(Cc2ccccc2)CC1)c1ccccc1I`, 73 to 74 °C.
Compound `COc1ccc2c(c1)CN(C)C(=O)C2c1cc(Cl)cc(Cl)c1` (stereo unspecified) showed a melting point of 163 to 165 °C.
Then `O=C(CNC(=O)[C@@H]1CCCN1)Nc1ccc([N+](=O)[O-])cc1C(=O)c1ccccc1`, with 165 to 167 °C; and `COC1=CC(=O)C(OC)=C(CCCCCC2=C(OC)C(=O)C(Cl)=C(OC)C2=O)C1=O`, with 44.8 to 46 °C; and `Cc1ccc(-c2ccccc2C(=O)NC(C)(C)C)cc1`, with 105 to 106 °C.
